Where “and” joins values, the source holds several entries; their conditions need not be identical. Equal entries are not always repeated. Where two headings read alike, the source gives them in different places.
Tests used:
[1] = cited from earlier work
[2] = test system: CYP3A4; details: human, in vivo, po, cited from earlier work
[3] = cited from earlier work; remark: listed apart in the source
[4] = cited from earlier work; remark: listed apart in the source
[5] = test system: rCYP3A5; details: cited from earlier work; for Km: read-out: rCYP3A5 Km
[6] = test system: CYP3A; details: mean of four human hepatocyte donors; three-parameter fit; Indmax = Emax + 1
[7] = test system: CYP3A; details: mean of four human hepatocyte donors; three-parameter fit; Indmax = Emax + 1; remark: listed apart in the source
[8] = test system: HLM; set-up: method as in ref (Pearce et al., 2002); details: Other enzymes were combined; ref (Pearce et al., 2002); cited from earlier work
[9] = test system: rCYP2C8; set-up: method as in ref (Cazali et al., 2003); details: ref (Cazali et al., 2003); cited from earlier work
[10] = test system: rUGT2B7; set-up: method as in ref (Staines et al., 2004); details: ref (Staines et al., 2004); cited from earlier work
[11] = test system: CYP3A; test: in vitro; details: human, cryopreserved human hepatocytes, probe testosterone (6β-hydroxytestosterone formation)
[12] = test system: CYP3A; test: in vitro; details: human, cryopreserved human hepatocytes
[13] = cited from earlier work; remark: listed apart in the source
[14] = ref Meta-analysis (Bonneton et al., 1992); (de Groot et al., 1984); cited from earlier work
[15] = Neutral; ref (Zhu et al., 2002); (Lombardo et al., 2000); (Henczi et al., 1995) and 4 others; cited from earlier work
[16] = test system: rCYP3A4; details: ref (Cazali et al., 2003), (Huang et al., 2004), cited from earlier work
[17] = test system: HLM; test: Additional (unassigned) intrinsic clearance; details: Added to recover degree of auto-induction via enzymes other than CYP3A4
[18] = test system: CYP3A4; test: Rifampicin-mediated clinical drug-drug interaction studies with CYP3A4 probe substrates; format: in vivo, human; details: for reduction in MDZ AUC, median: rifampicin, across clinical studies of Table 3; for fold induction: human, plasma, read-out: Geometric mean fold induction
[19] = test system: rUGT1A4; details: corrected for fumic & ISEF, ref Meta-analysis (Emoto et al., 2003), (Galetin et al., 2004) and 7 others incl. (Hyland et al., 2009), cited from earlier work
[20] = test system: CYP2D6; set-up: method as in ref (Ching et al., 1995); (Broly et al., 1989); (Lalovic et al., 2004); details: ref (Ching et al., 1995); (Broly et al., 1989); (Lalovic et al., 2004); cited from earlier work
[21] = test system: CYP3A4; details: read-out: CYP3A4 Ki; ref (Nielsen et al., 1999); (Ngui et al., 2000); (Guengerich et al., 1986); cited from earlier work
[22] = test system: CYP3A4; details: human, in vivo, cited from earlier work
[23] = test system: rCYP1A2; details: corrected for fumic & ISEF, ref (Von Moltke et al., 1999), cited from earlier work; for Km: read-out: rCYP1A2 Km
[24] = test system: rCYP2C9; details: corrected for fumic & ISEF, ref (Von Moltke et al., 1999), cited from earlier work; for Km: read-out: rCYP2C9 Km
[25] = test system: rCYP2C19; details: M3, corrected for fumic & ISEF, ref (Von Moltke et al., 1999), cited from earlier work
[26] = test system: rCYP2D6; details: corrected for fumic & ISEF, ref (Von Moltke et al., 1999), cited from earlier work; for Km: read-out: rCYP2D6 Km
[27] = test system: rCYP2J2; details: corrected for fumic & ISEF, ref (Von Moltke et al., 1999), cited from earlier work; for Km: read-out: rCYP2J2 Km
[28] = 1-hydroxylation, corrected for fumic & ISEF, ref Meta-analysis (Emoto et al., 2003), (Galetin et al., 2004) and 7 others
[29] = 4-hydroxylation, corrected for fumic & ISEF, ref Meta-analysis (Emoto et al., 2003), (Galetin et al., 2004) and 7 others

## C=C[C@@]1(O)CN2CC[C@H]1C[C@@H]2[C@@H](O)c1ccnc2ccc(OC)cc12 [3-OH Quinidine]
[1]; in vivo
  CLR: 16.7 L/h
  CLpo: 52.6 L/h

## Cc1nnc2n1-c1ccc(Cl)cc1C(c1ccccc1)=NC2 [Alprazolam, alprazolam]
[2]; 1 mg
  AUC: 242 (31.3) ng/mL.h
[2]
  AUCi: 28.4 (23.9) ng/mL.h
[3]; ref (Smith et al., 1984), (Lin et al., 1988), (Kirkwood et al., 1991), (Amchin et al., 1998), (Greenblatt et al., 1983)
  ka: 3.56 h⁻¹
[4]; in vivo
  Vss (Minimal PBPK): 0.99 L/kg
[1]; in vivo
  CLR: 0.678 L/h
[5]; 4-hydroxylation, corrected for fumic & ISEF, ref Meta-analysis (Hirota et al., 2001), (Galetin et al., 2004) (Williams et al., 2002)
  Km: 211 µM
[5]; second pathway, printed 'oxylation', corrected for fumic & ISEF, ref Meta-analysis (Hirota et al., 2001), (Galetin et al., 2004) (Williams et al., 2002)
  Km: 205 µM

## NC(=O)N1c2ccccc2C=Cc2ccccc21 [Carbamazepine, carbamazepine]
[6]
  Activity Indmax: 16.6 fold
[7]
  mRNA Indmax: 21.9 fold
[8]
  Add HLM CLint: 0.255 µL/min/mg
[9]
  Km: 742 µM
  rCYP2C8 Vmax: 0.03 pmol/min/pmol
[10]
  Km: 25.4 µM
  rUGT2B7 Vmax: 4.18 pmol/min/pmol
[11]
  EC50: 59.1 µM
[12]
  EC50: 58.7 µM
[13]; ref Meta-analysis (Grimsley et al., 1991), (Di Salle et al., 1974), (Rawlins et al., 1975) and 4 others
  fu: 0.25
[14]
  B:P: 1.07
[15]
  logP: 2.22
[3]; ref (Geradin et al., 1976), (Grimsley et al., 1991), (Olling et al., 1999), (Wong et al., 1983)
  ka: 0.5 h⁻¹
[3]; ref (Tchaparian et al., 2008), (Faigle and Feldmann, 1975), (Levy et al., 1975)
  fa: 0.84
[4]; ref (Ramsay et al., 1990)
  Vss (Minimal PBPK): 0.78 L/kg
[1]; parent carbamazepine, ref (Kim et al., 2005)
  CLR: 0.0084 L/h
[16]; read-out: rCYP3A4 Km
  Km: 180 µM
[16]
  rCYP3A4 Vmax: 0.72 pmol/min/pmol
[5]; ref (Huang et al., 2004)
  Km: 332 µM
  rCYP3A5 Vmax: 1.44 pmol/min/pmol
[17]
  Add rCYP CLint: 0.010 µL/min/pmol

## NC(=O)N1c2ccccc2C2OC2c2ccccc21 (stereo not shown) [Carbamazepine-10,11-epoxide]
[1]; in vivo
  CLR: 0.14 L/h
  CLpo: 6.07 L/h

## Cc1ncc2n1-c1ccc(Cl)cc1C(c1ccccc1F)=NC2 [Midazolam, midazolam]
[18]; MDZ administered orally, listed as MDZ
  reduction in MDZ AUC, median: 17.5 fold and 18.1 fold
[18]; MDZ i.v. administration
  reduction in MDZ AUC, median: 2.0 fold
[18]; iv
  fold induction: 1.99
[18]; po
  fold induction: 18.1
[18]; meta-analysis of studies where midazolam was administered orally with rifampicin
  1/AUC ratio, CI of the observations: 5.4-60.4
[2]; 0.075 mg
  AUC ratio: 2.3 fold
[3]; ref (Allonen et al., 1981)
  ka: 3 h⁻¹
[4]; in vivo
  Vss (Minimal PBPK): 1 L/kg
[1]; in vivo
  CLR: 0.085 L/h
  Fe: 0.0033
[5]; [28]
  rCYP3A5 Vmax: 19.7 µL/min/pmol
  Km: 4.16 µM
[5]; [29]
  rCYP3A5 Vmax: 4.03 µL/min/pmol
  Km: 34.8 µM
[19]
  rUGT1A4 Vmax: 445 µL/min/mg
[19]; read-out: rUGT1A4 Km
  Km: 40.3 µM

## C=C[C@H]1C[N@@]2CC[C@H]1C[C@@H]2[C@@H](O)c1ccnc2ccc(OC)cc12 [Quinidine, quinidine]
[20]
  Ki: […]
[21]
  Ki: 40 µM

## CO[C@H]1/C=C/O[C@@]2(C)Oc3c(C)c(O)c4c(O)c(c(/C=N/N5CCN(C)CC5)c(O)c4c3C2=O)NC(=O)/C(C)=C\C=C\[C@H](C)[C@H](O)[C@@H](C)[C@@H](O)[C@@H](C)[C@H](OC(C)=O)[C@@H]1C [Rifampicin, rifampicin]
[13]; ref (Burman et al., 2001)
  fu: 0.15
[4]; ref (Loos et al., 1985)
  Vss (Minimal PBPK): 0.33 L/kg
[1]; in vivo
  CLiv: 7 L/h
[1]; ref Polk 2001
  CLR: 1.2 L/h

## Cc1nnc2n1-c1ccc(Cl)cc1C(c1ccccc1Cl)=NC2 [Triazolam, triazolam]
[2]; 0.5 mg
  AUC: 14.8 (21.4) ng/mL.h
[2]
  1/AUC Ratio: 20.0
  AUCi: 0.74 (59.8) ng/mL.h

## Cc1ccc(-c2nc3ccc(C)cn3c2CC(=O)N(C)C)cc1 [Zolpidem, zolpidem]
[2]; 20 mg
  AUC: 1110 (36.9) ng/mL.h
[2]
  1/AUC Ratio: 3.34
  AUCi: 332 (56.4) ng/mL.h
[22]; 5 mg
  AUC: 0.235 (70.4) mg/L.h
[22]
  1/AUC Ratio: 2.31
  AUCi: 0.102 (58.1) mg/L.h
[3]; ref (Olubodun et al., 2003), (Patat et al., 1994)
  ka: 2.25 h⁻¹
[4]; in vivo
  Vss (Minimal PBPK): 0.68 L/kg
[1]; in vivo
  CLR: 0.18 L/h
  fe: 0.01
[23]; M3
  rCYP1A2 Vmax: 7.99 µL/min/pmol
  Km: 38 µM
[23]; M4
  rCYP1A2 Vmax: 0.777 µL/min/pmol
  Km: 40 µM
[24]; M3
  rCYP2C9 Vmax: 17.42 µL/min/pmol
  Km: 103 µM
[24]; M4
  rCYP2C9 Vmax: 0.888 µL/min/pmol
  Km: 81 µM
[25]
  rCYP2C19 Vmax: 0.8 µL/min/pmol
[25]; read-out: rCYP2C19 Km
  Km: 133 µM
[26]; M3
  rCYP2D6 Vmax: 1.44 µL/min/pmol
  Km: 190 µM
[26]; M4
  rCYP2D6 Vmax: 4.68 µL/min/pmol
  Km: 214 µM
[27]; M4
  rCYP2J2 Vmax: 6.86 µL/min/pmol
  Km: 399 µM
[27]; M3
  Km: 340 µM

Source: publication PMC4885489, “Prediction of Drug-Drug Interactions Arising from CYP3A induction Using a Physiologically Based Dynamic Model” (Drug Metabolism and Disposition, 2016)
